Broadly, the MIC is the lowest concentration found to suppress growth.

≈ marks a conversion by molar mass, not a printed value.

This note sets out measurements from ChEMBL document CHEMBL1671671, “Tooth-binding micelles for dental caries prevention” (Antimicrob Agents Chemother, 2009).

For series [1], the system named is Streptococcus mutans. The series is described as follows: Antibacterial activity against Streptococcus mutans UA159. Type of series: functional.
Series [2] relates to Streptococcus mutans. The series is described as follows: Antibacterial activity against Streptococcus mutans UA159 assessed as log decrease in bacterial count per biofilm recovered from hydroxyapatite disc using low dose compound containing hydroxyapatite bound tooth-binding micelles formed from biocompatible pluronic copolymers modified with alendronat measured after 48 hrs post dose. Type of series: functional.

In series [3] the test system is Streptococcus mutans. The series is described as follows: Antibacterial activity against Streptococcus mutans UA159 assessed as log decrease in bacterial count per biofilm recovered from hydroxyapatite disc using medium dose compound containing hydroxyapatite bound tooth-binding micelles formed from biocompatible pluronic copolymers modified with alendronat measured after 48 hrs post dose. Format: functional.

Series [4] deals with Streptococcus mutans. Briefly: Antibacterial activity against Streptococcus mutans UA159 assessed as log decrease in bacterial count per biofilm recovered from hydroxyapatite disc using high dose compound containing hydroxyapatite bound tooth-binding micelles formed from biocompatible pluronic copolymers modified with alendronat measured after 48 hrs post dose. Format: functional.

Series [5] can be described thus: Drug release from hydroxyapatite bound tooth-binding micelles formed from biocompatible pluronic copolymers modified with alendronat assessed as compound release into medium after 48 hrs. Format: physicochemical.

In turn, `CC(C)=CCC/C(C)=C/CC/C(C)=C/CO` [FARNESOL] came in with a minimal inhibitory concentration (MIC) in the series with Streptococcus mutans [1] of 125 µM (≈ 27.8 µg/mL). Besides, the FC in the series on Streptococcus mutans [2], in the series with Streptococcus mutans [3] and in the series with Streptococcus mutans [4] was 4 throughout. Besides, the Activity in series [5] came out at 10%.
